Source: the supplement of paper PMC10307832

Assays:
Assay in all cases: relative viability (nuclei count vs DMSO), 5 days (fraction); higher = more cells survive
[1] = compound: C1/C(=C\C2=CC=CS2)/C(=O)/C(=C/C3=CC=CS3)/C1 + O=C(c1cc(Cc2n[nH]c(=O)c3ccccc23)ccc1F)N1CCN(C(=O)C2CC2)CC1 [Olaparib] (partner 8 µM)
Outline: (§1)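 Nuclei were stained with Hoechst during a one-step fixation (final 0.05% Triton X-100, 1% formaldehyde, 1 ug/ml Hoechst) carried out 5 days after dosing, then counted on 4× images. The cells, lung cancer lines in 1536-well plates, had been dosed by pin tool the day after seeding with one drug alone or a fixed anchor-drug dose plus five library-drug doses (not always all listed) in √10 steps. Relative viability is the nuclei count in treated wells divided by that in vehicle wells, and each value is the median of duplicate plates.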

TPCA-1 + Pictilisib = compound: C1=CC(=CC=C1C2=CC(=C(S2)NC(=O)N)C(=O)N)F [TPCA-1] + CS(=O)(=O)N1CCN(Cc2cc3nc(-c4cccc5[nH]ncc45)nc(N4CCOCC4)c3s2)CC1 [Pictilisib] (partner 1 µM)
Outline: as §1

TPCA-1 + Pemetrexed = compound: C1=CC(=CC=C1C2=CC(=C(S2)NC(=O)N)C(=O)N)F [TPCA-1] + Nc1nc2[nH]cc(CCc3ccc(C(=O)N[C@@H](CCC(=O)O)C(=O)O)cc3)c2c(=O)[nH]1 [Pemetrexed] (partner 0.2 µM)
Outline: as §1

[2] = compound: C[C@]12O[C@H](C[C@]1(O)CO)n1c3ccccc3c3c4c(c5c6ccccc6n2c5c31)CNC4=O [Lestaurtinib] + CC(=O)Nc1cccc(-n2c(=O)n(C3CC3)c(=O)c3c(Nc4ccc(I)cc4F)n(C)c(=O)c(C)c32)c1 [Trametinib] (partner 0.02 µM)
Outline: as §1

| Cell Line | relative viability ([1]; first compound 0.2 µM) | relative viability ([1]; first compound 0.6325 µM) | relative viability ([1]; first compound 2 µM) | relative viability ([1]; first compound 6.325 µM) | relative viability ([1]; first compound 20 µM) | relative viability (TPCA-1 + Pictilisib; first compound 0.04 µM) | relative viability (TPCA-1 + Pictilisib; first compound 0.1265 µM) | relative viability (TPCA-1 + Pictilisib; first compound 0.4 µM) | relative viability (TPCA-1 + Pictilisib; first compound 1.265 µM) | relative viability (TPCA-1 + Pictilisib; first compound 4 µM) | relative viability (TPCA-1 + Pemetrexed; first compound 0.04 µM) | relative viability (TPCA-1 + Pemetrexed; first compound 0.1265 µM) | relative viability (TPCA-1 + Pemetrexed; first compound 0.4 µM) | relative viability (TPCA-1 + Pemetrexed; first compound 1.265 µM) | relative viability (TPCA-1 + Pemetrexed; first compound 4 µM) | relative viability ([2]; first compound 0.005 µM) | relative viability ([2]; first compound 0.01581 µM) | relative viability ([2]; first compound 0.05 µM) | relative viability ([2]; first compound 0.1581 µM) | relative viability ([2]; first compound 0.5 µM) |
| --- | --- | --- | --- | --- | --- | --- | --- | --- | --- | --- | --- | --- | --- | --- | --- | --- | --- | --- | --- | --- |
| SW 1573 | 0.394 | 0.455 | 0.556 | 0.435 | 0.248 | 0.54 | 0.419 | 0.506 | 0.505 | 0.495 | 0.792 | 0.823 | 0.844 | 0.924 | 0.715 | 0.712 | 0.672 | 0.491 | 0.367 | 0.144 |
| NCI-H322M | 0.827 | 0.776 | 0.822 | 0.783 | 0.762 | 0.587 | 0.494 | 0.529 | 0.532 | 0.464 | 0.614 | 0.481 | 0.57 | 0.566 | 0.497 | 0.507 | 0.567 | – | 0.512 | 0.672 |
| LK-2 | 0.769 | 0.787 | 0.765 | 0.853 | 0.753 | 0.721 | 0.349 | 0.615 | 0.662 | 0.442 | 0.268 | – | 0.253 | 0.232 | 0.141 | 0.778 | 0.941 | 0.718 | 0.65 | 0.293 |
| NCI-H2023 | 0.457 | 0.501 | 0.459 | 0.459 | 0.417 | 0.264 | 0.177 | 0.237 | 0.176 | 0.115 | 0.2 | 0.282 | 0.254 | 0.222 | 0.202 | 0.557 | 0.712 | 0.599 | 0.354 | 0.132 |
| NCI-H596 | 0.674 | 0.727 | 0.767 | 0.596 | 0.665 | 0.402 | 0.353 | 0.196 | 0.388 | 0.387 | 0.53 | 0.516 | 0.532 | 0.509 | 0.412 | 0.691 | 0.842 | 0.848 | 0.993 | 0.845 |
| SK-MES-1 | 0.792 | 0.781 | 0.696 | 0.669 | 0.729 | 0.403 | 0.316 | 0.305 | 0.255 | 0.276 | 0.925 | 0.808 | 0.91 | 0.769 | 0.631 | 0.535 | 0.515 | 0.495 | 0.415 | 0.208 |
| NCI-H1793 | 0.904 | 0.931 | 0.978 | 0.782 | 0.893 | 0.292 | 0.381 | 0.454 | 0.245 | 0.28 | 0.97 | 0.709 | 0.921 | 0.963 | 0.249 | 0.425 | 0.467 | 0.432 | 0.461 | 0.346 |
| NCI-H2405 | 0.905 | 0.844 | 1.04 | 0.789 | 0.867 | 0.487 | 0.353 | 0.493 | – | 0.364 | 1.09 | 1.03 | 1.02 | 1.02 | 0.914 | 0.701 | 0.656 | 0.572 | 0.54 | 0.274 |
| LCLC-103H | 0.738 | 0.795 | 0.739 | 0.68 | 0.722 | 0.659 | 0.593 | 0.553 | 0.587 | 0.656 | 0.522 | 0.426 | 0.464 | 0.398 | 0.432 | 0.717 | 0.741 | 0.609 | 0.592 | 0.678 |
| NCI-H460 | 0.548 | 0.455 | 0.503 | 0.398 | 0.449 | 0.421 | 0.246 | 0.332 | 0.339 | 0.216 | 0.0613 | 0.0689 | – | 0.0518 | 0.0585 | 0.237 | 0.201 | 0.144 | 0.142 | 0.0705 |
| NCI-H1755 | 0.88 | 0.907 | 0.916 | 0.749 | 0.877 | 0.406 | 0.344 | 0.426 | 0.209 | 0.204 | 0.448 | 0.437 | 0.459 | 0.379 | 0.444 | 0.766 | 0.774 | 0.731 | 0.571 | 0.407 |
| NCI-H358 | 0.862 | 0.715 | 0.657 | 0.443 | 0.492 | 0.309 | 0.272 | 0.349 | 0.335 | 0.236 | 0.187 | 0.167 | 0.162 | 0.156 | 0.167 | 0.139 | 0.119 | 0.157 | 0.103 | 0.0891 |
| NCI-H1734 | 0.621 | 0.597 | 0.596 | 0.528 | 0.629 | 0.53 | 0.353 | 0.447 | 0.518 | 0.264 | 0.41 | 0.413 | 0.41 | 0.48 | 0.362 | 0.788 | 0.788 | 0.712 | 0.478 | 0.267 |
| EPLC-272H | 0.858 | 0.907 | 0.627 | 0.506 | 0.579 | 0.381 | 0.285 | 0.341 | 0.38 | 0.32 | 0.287 | 0.331 | 0.371 | 0.359 | 0.266 | 0.271 | 0.23 | 0.218 | 0.224 | 0.286 |
| NCI-H2126 | 0.951 | 0.926 | 0.883 | 0.882 | 0.85 | 0.507 | 0.435 | 0.506 | 0.505 | 0.309 | 0.636 | 0.607 | 0.679 | 0.508 | 0.524 | 0.625 | 0.6 | 0.624 | 0.52 | 0.578 |
